Values quoted from earlier work in patent US20020132320A1, “Glycoconjugate synthesis using a pathway-engineered organism” (priority 2001, published 2002).

Assays:
[1] = biological target: Hyaluronan synthase (spHAS) (Streptococcus pyogenes, UniProt P0C0H0)
[2] = test system: UDP-GalNAc pyrophosphorylase; details: substrate of purified UDP-GalNAc pyrophosphorylase
[3] = relative to morphine
E. coli NanA = E. coli NanA (Escherichia coli, UniProt P0A6L4); details: cleavage reaction
CMP-NeuNAc synthetase = biological target: T1, CMP-NeuNAc synthetase (Escherichia coli O18:K1:H7, UniProt P13266); details: enzyme purified from E. coli K1; read-out: apparent Km
T1 construct: host or cells: E. coli K1

In the case of CC(=O)N[C@H]1[C@@H](OP(=O)(O)OP(=O)(O)OC[C@H]2O[C@@H](n3ccc(=O)[nH]c3=O)[C@H](O)[C@@H]2O)O[C@H](CO)[C@@H](O)[C@@H]1O [UDP-GlcNAc, uridine 5′-diphospho-N-acetylglucosamine], the Km [1] is given as 149 ± 3 µM.
In the case of O=C(O)[C@H]1O[C@H](OP(=O)(O)OP(=O)(O)OC[C@H]2O[C@@H](n3ccc(=O)[nH]c3=O)[C@H](O)[C@@H]2O)[C@H](O)[C@@H](O)[C@@H]1O [UDP-GlcA, uridine 5′-diphosphoglucuronic acid], the Km [1] is listed as 40 ± 4 µM.
For CC(=O)N[C@H]1C(OP(=O)(O)O)O[C@H](CO)[C@H](O)[C@@H]1O (stereo partly shown) [GalNAc-1-P, N-acetylgalactosamine-1-phosphate], the Km [2] is given as 290 µM.
In the case of CC(=O)NC1C(OP(=O)(O)O)OC(CO)C(O)C1O (stereo not shown) [GlcNAc-1-P], the Km [2] is listed as 1100 µM.
In the case of CN1CC[C@]23c4c5ccc(O)c4O[C@H]2[C@@H](O[C@@H]2O[C@H](C(=O)O)[C@@H](O)[C@H](O)[C@H]2O)C=C[C@H]3[C@H]1C5 [morphine-6-O-glucuronide], the “times more active than morphine” value [3] is listed as 50 times.
For CC(=O)N[C@H]1[C@H]([C@H](O)[C@H](O)CO)OC(O)(C(=O)O)C[C@@H]1O (stereo partly shown) [NeuNAc, N-acetylneuraminic acid], the Km (E. coli NanA) is listed as 4300 µM.
In the case of Nc1ccn([C@@H]2O[C@H](COP(=O)(O)OP(=O)(O)OP(=O)(O)O)[C@@H](O)[C@H]2O)c(=O)n1 [CTP, Cytosine 5′-triphosphate], the Km (CMP-NeuNAc synthetase) is given as 310 µM.
